Values joined by “and” are separate entries in the source; they are usually repeats but may differ in a detail not shown here. Equal entries are not always repeated. Where two headings read alike, the source gives them in different places.
Legend:
[1] = system: corresponding immobilised fibrils (fibrillar form of Aβ); experiment: SPR dissociation rate k(off) of Aβ fibrils, slow phase, relative to Aβ1–40 wt; format: binding; conditions: for RD, relative dissociation (k(off) versus Aβ1–40 wt): 150 mM NaCl, 25 °C, after 2 μM monomer injection, slow phase, points before 100 s excluded, one exponential decay, Aβ1–40 wt = 1
Experimental: (§1) Recombinant variants of Aβ1–40, Aβ1–40 H6A, Aβ1–40 H13A, Aβ1–40 H14A and Aβ1–40 H6A, H13A, H14A were obtained from AlexoTech (Umeå, Sweden). All lyophilised peptides were solubilised in 20 mM NaOH and separated by size‐exclusion chromatography (Superdex 10/300, GE Life Science, Uppsala, Sweden) in PBS with 2 mM EDTA, 5 mM NaOH and 150 mM NaCl. The pH of all purified peptide solutions was adjusted using a stock solution of phosphate or acetate buffer to give a final buffer concentration corresponding to 20 mM phosphate (pH 7.4) or acetate (pH 5.5) and 150 mM NaCl.
(§2) The interaction study between the fibrillar form of Aβ and its monomeric form was performed using a BIAcore® 3000 biosensor (GE Healthcare®, Uppsala, Sweden) equipped with a CM5 sensor chip (GE Healthcare®). First, the fibrillar form of Aβ was immobilised at a density of 3500 response units (RUs) on the dextran layer of the chip using standard amino coupling reagents at pH 4.0. All SPR experiments were performed at 25 °C at a flow rate of 20 μL·min^−1 in either a 20 mM phosphate buffer (pH 7.4) or 20 mM acetate buffer (pH 5.5). All experiments were performed in the presence of 150 mM NaCl, which represents a physiological ion‐strength.
(§3) All sensograms were corrected for nonspecific interactions using a reference surface according to standard procedures 16.
Note that the dissociation phase exposes a biphasic curvature. This is highly representative and frequently observed when performing these kinds of experiments. […] All analyses of decay rates within this work are therefore exclusively focused on the slower second phase of dissociation.
In contrast to the association rate, kon, the rate of dissociation, koff, is independent of the concentration of monomers. Subsequent to probing, the immobilised fibrils with free monomers, the rate of dissociation can be seen as a decrease in the signal over time.
Because the latter part of the curve, representing the slower phase of dissociation (indicated by arrow 3 Fig. 1), strongly dominates the interaction strength, we have exclusively focused on this part, and no points before 100 s were included in the curve. The dissociation curve could then be fitted to a one exponential decay.

[2] = system: corresponding immobilised fibrils (fibrillar form of Aβ); experiment: SPR association rate k(on) of Aβ monomers onto immobilised fibrils, relative to Aβ1–40 wt; format: binding; conditions: for RA, relative association (k(on) versus Aβ1–40 wt): 150 mM NaCl, 25 °C, 20 μL·min^−1, CM5 chip, fibrils at 3500 RU, end state after 60 s injection, Aβ1–40 wt = 1
Experimental: as §1, §2
Due to the polymeric nature of amyloid fibrils, the covalent immobilisation on the sensor chip, likely only occurs in minor fraction of the accessible amino groups. This treatment is therefore not anticipated to influence the overall incorporation of monomers in a significant manner. However, the influence from using immobilised fibrils or the dextran layer cannot be fully excluded and should therefore be disclosed.
as §3
Probing free monomeric Aβ against immobilised fibrils using SPR is a frequently used technique for measuring the intrinsic kinetic properties of Aβ polymerisation 11, 14, 17, 18, 19.
Fibrils from recombinant variants of Aβ1–40, Aβ1–40 H6A, Aβ1–40 H13A, Aβ1–40 H14A and Aβ1–40 H6A, H13A, H14A were prepared by prolonged incubation in either PBS (pH 7.4) or acetate buffer pH 5.5 containing 150 mM NaCl. Fibrils immobilised on a CM5 chip were then probed with their monomeric counterpart at different concentrations of Aβ monomers and analysed by SPR. Samples were injected for exactly 60 s and the maximal value at the end state of each injection (indicated by arrow 1 in Fig. 1A) was plotted as a function of the monomeric concentration, Fig. 2. This generates an association rate at each point of measurement. A guideline is given in the figures to illustrate the linearity.
By comparing the rate between the different Aβ variants, it is possible to determine relative differences in k(on).

[3] = system: immobilised Aβ fibrils / fibrillar end; experiment: Fibril stability (KD, RD/RA, potentiation factor) from SPR association and dissociation; format: binding; conditions: 25 °C, relative to Aβ1–40 wt
Experimental: as §2, §3
While a simple interaction between, for example, a receptor and ligand can easily be determined through saturation experiments, this cannot be done with polymers since they, per definition, cannot be saturated.
This problem can, however, be circumvented by defining the concentration of free monomers where the fibrils are at steady state, i.e. the concentration of free monomers where neither association nor dissociation can be detected. We have previously shown that the KD for Aβ1–40 wt at neutral pH is around 100 nM and around 1 nM at pH 5.5 11, 13. The KD at neutral pH has also been investigated by Hasegawa and co‐workers 14 with similar results. All figures used here are therefore given as relative values to the KD for Aβ1–40 wt corresponding to 100 nM at neutral pH and 1 nM at pH 5.5.
Multiplying the relative RD/RA with the KD for Aβ 1–40 wt will then give the KD for the histidine derivatives.

[4] = target: immobilised Aβ fibrils / fibrillar end; conditions: cited from earlier work
Text: Table 1 Relative change of association and dissociation rates of Aβ1–40 wt and the His‐Ala Aβ variants, and the potentiation of Aβ fibril formation as a function of lowering the pH. RA, Relative association; RD, Relative dissociation; PnF, Potentiation factor KD(pH7.4)/KD(pH5.5) | column: pH 7.4 / KD (nM); pH 5.5 / KD (nM) || The formation of Aβ fibrils requires an initial nucleation event, and fibril elongation involves the addition of monomers to an existing fibril. […] The KD for Aβ1–40 can be as much as 120 times lower at pH 4.5 than pH 7.4. […] It is therefore of interest to elucidate the stabilising factors associated with fibril stability and the potentiating ... || (+ 3 further places)

Aβ1–40 H6A, H13A, H14A: recombinant Aβ1–40 variant where all three histidines have been exchanged for alanine (DAEFRADSGYEVAAQKLVFFAEDVGSNKGAIIGLMVGGVV; Amyloid-beta protein 40; UniProt P05067 672-711, looked up, variant H6A H13A H14A)
RD, relative dissociation (k(off) versus Aβ1–40 wt) ([1]; pH 5.5, 20 mM acetate): 8.33 | RD, relative dissociation (k(off) versus Aβ1–40 wt) ([1]; pH 7.4, 20 mM phosphate): 2.70 | RA, relative association (k(on) versus Aβ1–40 wt) ([2]; pH 5.5, 20 mM acetate): 1.57 | RA, relative association (k(on) versus Aβ1–40 wt) ([2]; pH 7.4, 20 mM phosphate): 0.22 | RD/RA ([3]; pH 5.5, 150 mM NaCl): 5.31 | RD/RA ([3]; pH 7.4, 150 mM NaCl): 12.27

Aβ1–40 H13A
RD, relative dissociation (k(off) versus Aβ1–40 wt) ([1]; pH 5.5, 20 mM acetate): 2.13 | RD, relative dissociation (k(off) versus Aβ1–40 wt) ([1]; pH 7.4, 20 mM phosphate): 2.22 | RA, relative association (k(on) versus Aβ1–40 wt) ([2]; pH 5.5, 20 mM acetate): 1.01 | RA, relative association (k(on) versus Aβ1–40 wt) ([2]; pH 7.4, 20 mM phosphate): 0.31 | RD/RA ([3]; pH 5.5, 150 mM NaCl): 2.11 | RD/RA ([3]; pH 7.4, 150 mM NaCl): 7.16

Aβ1–40 H14A
RD, relative dissociation (k(off) versus Aβ1–40 wt) ([1]; pH 5.5, 20 mM acetate): 2.22 | RD, relative dissociation (k(off) versus Aβ1–40 wt) ([1]; pH 7.4, 20 mM phosphate): 2.70 | RA, relative association (k(on) versus Aβ1–40 wt) ([2]; pH 5.5, 20 mM acetate): 1.01 | RA, relative association (k(on) versus Aβ1–40 wt) ([2]; pH 7.4, 20 mM phosphate): 0.34 | RD/RA ([3]; pH 7.4, 150 mM NaCl): 7.94

Aβ1–40 wt: wild‐type amyloid β 1–40, recombinant, obtained from AlexoTech (Umeå, Sweden) [reference compound]
RD, relative dissociation (k(off) versus Aβ1–40 wt) ([1]; pH 5.5, 20 mM acetate): 1 | RD, relative dissociation (k(off) versus Aβ1–40 wt) ([1]; pH 7.4, 20 mM phosphate): 1 | stabilisation / dissociation on lowering the pH, in words ([1]; pH 7.4 to 5.5): significantly stabilised by the decrease in pH | Kd ([4]; neutral pH (pH 7.4), reference value for the relative KDs, read-out: KD (critical concentration)): ~100 nM and 100 nM | Kd ([4]; neutral pH, read-out: critical concentration (KD)): ~100 nM | decrease of KD at pH 4.5 versus pH 7.4 (times lower) ([4]; pH 4.5 vs pH 7.4, "as much as"): ≤ 120 times | Kd ([4]; pH 5.5, reference value for the relative KDs, read-out: KD): ~1 nM and 1 nM | RA, relative association (k(on) versus Aβ1–40 wt) ([2]; pH 5.5, 20 mM acetate): 1 | rate of association, in words ([2]; pH 5.5 versus pH 7.4): much faster rate of association | RA, relative association (k(on) versus Aβ1–40 wt) ([2]; pH 7.4, 20 mM phosphate): 1 | RD/RA ([3]; pH 5.5, 150 mM NaCl): 1 | RD/RA ([3]; pH 7.4, 150 mM NaCl): 1

Aβ1–42: one of the two dominant forms of amyloid β
critical concentration (KD), in words ([4]; neutral pH, compared with Aβ1–40): slightly lower

— publication PMC5434815, “The role of histidines in amyloid β fibril assembly” (Febs Letters, 2017)
